Laboratory results: ChEMBL document CHEMBL3882729, “Receptor-type kinase modulators and methods of use” (2009)

How the values were obtained:
Ephrin type-B receptor 4 = molecular target: T1, Ephrin type-B receptor 4 (Homo sapiens, UniProt P54760); assay: Inhibition of recombinant human N-terminal His6-tagged EphB4 kinase domain (E605 to E890 residues) expressed in baculovirus using poly-AEKY as substrate after 150 mins in presence of gamma33P-ATP by liquid scintillation spectrometry
T1 sequence (P54760 whole entry): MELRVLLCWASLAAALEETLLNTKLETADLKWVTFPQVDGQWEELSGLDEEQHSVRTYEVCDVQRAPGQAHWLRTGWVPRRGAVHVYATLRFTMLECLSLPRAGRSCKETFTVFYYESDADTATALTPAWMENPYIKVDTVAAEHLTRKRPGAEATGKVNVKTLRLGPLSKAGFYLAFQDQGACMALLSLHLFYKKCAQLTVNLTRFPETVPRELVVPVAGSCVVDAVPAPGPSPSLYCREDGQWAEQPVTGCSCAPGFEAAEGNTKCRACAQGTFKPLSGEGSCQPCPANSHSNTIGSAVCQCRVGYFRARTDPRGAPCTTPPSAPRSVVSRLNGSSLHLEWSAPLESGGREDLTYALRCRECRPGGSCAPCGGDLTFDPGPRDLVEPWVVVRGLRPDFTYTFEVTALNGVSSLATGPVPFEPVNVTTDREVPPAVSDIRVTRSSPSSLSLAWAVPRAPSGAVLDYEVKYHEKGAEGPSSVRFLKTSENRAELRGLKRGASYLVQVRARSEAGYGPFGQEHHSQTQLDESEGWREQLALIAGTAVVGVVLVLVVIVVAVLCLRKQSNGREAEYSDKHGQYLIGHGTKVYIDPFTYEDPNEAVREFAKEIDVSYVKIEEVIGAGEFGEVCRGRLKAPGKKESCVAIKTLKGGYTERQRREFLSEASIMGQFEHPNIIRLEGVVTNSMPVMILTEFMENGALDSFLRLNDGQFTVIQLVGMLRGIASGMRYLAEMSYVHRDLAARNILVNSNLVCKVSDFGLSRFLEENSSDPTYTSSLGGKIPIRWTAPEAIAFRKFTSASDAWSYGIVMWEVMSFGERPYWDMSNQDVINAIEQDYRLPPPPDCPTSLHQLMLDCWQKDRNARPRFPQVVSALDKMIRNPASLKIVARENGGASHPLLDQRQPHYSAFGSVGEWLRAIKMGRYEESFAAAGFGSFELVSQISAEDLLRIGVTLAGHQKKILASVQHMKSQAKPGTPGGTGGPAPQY

[1] = molecular target: Vascular endothelial growth factor receptor 2 (Homo sapiens, UniProt P35968); assay: Inhibition of recombinant human N-terminal GST-fused KDR (D807 to V1356 residues) expressed in baculovirus infected […] insect Sf9 cells using poly-EY as substrate after 240 mins by luciferase coupled chemiluminescence assay
Sequence of Vascular endothelial growth factor receptor 2 (P35968 whole entry, the tested form may be a part): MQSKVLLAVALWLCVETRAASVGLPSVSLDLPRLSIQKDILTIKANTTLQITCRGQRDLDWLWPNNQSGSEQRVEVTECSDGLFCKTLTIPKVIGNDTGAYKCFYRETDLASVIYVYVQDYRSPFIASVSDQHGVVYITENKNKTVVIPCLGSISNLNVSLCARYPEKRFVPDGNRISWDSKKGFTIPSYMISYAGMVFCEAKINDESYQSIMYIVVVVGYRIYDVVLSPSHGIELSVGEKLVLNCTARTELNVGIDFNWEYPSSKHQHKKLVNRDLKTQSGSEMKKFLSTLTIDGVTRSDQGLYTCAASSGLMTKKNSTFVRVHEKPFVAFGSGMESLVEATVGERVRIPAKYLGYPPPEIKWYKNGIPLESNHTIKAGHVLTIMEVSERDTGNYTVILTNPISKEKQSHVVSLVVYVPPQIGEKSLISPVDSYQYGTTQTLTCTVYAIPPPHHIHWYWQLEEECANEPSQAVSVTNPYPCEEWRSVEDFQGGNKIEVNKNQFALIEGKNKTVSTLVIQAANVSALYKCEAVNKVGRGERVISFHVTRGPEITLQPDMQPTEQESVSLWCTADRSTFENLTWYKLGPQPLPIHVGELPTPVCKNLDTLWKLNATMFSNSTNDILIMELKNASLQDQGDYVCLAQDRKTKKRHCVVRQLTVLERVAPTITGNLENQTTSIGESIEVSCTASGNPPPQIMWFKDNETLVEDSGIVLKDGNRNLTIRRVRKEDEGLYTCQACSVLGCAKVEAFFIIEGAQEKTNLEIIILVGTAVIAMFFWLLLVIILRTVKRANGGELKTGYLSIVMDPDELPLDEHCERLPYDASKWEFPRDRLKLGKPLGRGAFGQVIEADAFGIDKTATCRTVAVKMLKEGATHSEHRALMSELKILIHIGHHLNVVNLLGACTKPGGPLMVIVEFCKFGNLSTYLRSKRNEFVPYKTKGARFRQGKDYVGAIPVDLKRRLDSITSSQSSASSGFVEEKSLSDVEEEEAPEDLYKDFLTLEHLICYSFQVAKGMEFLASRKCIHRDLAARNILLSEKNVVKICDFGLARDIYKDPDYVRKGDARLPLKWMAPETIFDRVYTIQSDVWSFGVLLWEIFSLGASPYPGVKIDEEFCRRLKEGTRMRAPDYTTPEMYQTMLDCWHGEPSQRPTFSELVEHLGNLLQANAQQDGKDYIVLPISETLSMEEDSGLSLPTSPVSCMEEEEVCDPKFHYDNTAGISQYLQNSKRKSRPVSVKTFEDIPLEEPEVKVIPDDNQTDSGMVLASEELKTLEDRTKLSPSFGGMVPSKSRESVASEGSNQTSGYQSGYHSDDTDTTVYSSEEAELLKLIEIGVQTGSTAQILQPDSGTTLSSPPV

[2] = molecular target: Receptor tyrosine-protein kinase erbB-2 (Homo sapiens, UniProt P04626); assay: Inhibition of recombinant human N-terminal GST His6-tagged thrombin cleavage site-fused ErbB2 kinase domain (Q679 to V1255 residues) expressed in baculovirus infected insect Sf9 cells using biotinylated poly-EY as substrate after 60 mins by alphascreen assay
Sequence of Receptor tyrosine-protein kinase erbB-2 (P04626 whole entry, the tested form may be a part): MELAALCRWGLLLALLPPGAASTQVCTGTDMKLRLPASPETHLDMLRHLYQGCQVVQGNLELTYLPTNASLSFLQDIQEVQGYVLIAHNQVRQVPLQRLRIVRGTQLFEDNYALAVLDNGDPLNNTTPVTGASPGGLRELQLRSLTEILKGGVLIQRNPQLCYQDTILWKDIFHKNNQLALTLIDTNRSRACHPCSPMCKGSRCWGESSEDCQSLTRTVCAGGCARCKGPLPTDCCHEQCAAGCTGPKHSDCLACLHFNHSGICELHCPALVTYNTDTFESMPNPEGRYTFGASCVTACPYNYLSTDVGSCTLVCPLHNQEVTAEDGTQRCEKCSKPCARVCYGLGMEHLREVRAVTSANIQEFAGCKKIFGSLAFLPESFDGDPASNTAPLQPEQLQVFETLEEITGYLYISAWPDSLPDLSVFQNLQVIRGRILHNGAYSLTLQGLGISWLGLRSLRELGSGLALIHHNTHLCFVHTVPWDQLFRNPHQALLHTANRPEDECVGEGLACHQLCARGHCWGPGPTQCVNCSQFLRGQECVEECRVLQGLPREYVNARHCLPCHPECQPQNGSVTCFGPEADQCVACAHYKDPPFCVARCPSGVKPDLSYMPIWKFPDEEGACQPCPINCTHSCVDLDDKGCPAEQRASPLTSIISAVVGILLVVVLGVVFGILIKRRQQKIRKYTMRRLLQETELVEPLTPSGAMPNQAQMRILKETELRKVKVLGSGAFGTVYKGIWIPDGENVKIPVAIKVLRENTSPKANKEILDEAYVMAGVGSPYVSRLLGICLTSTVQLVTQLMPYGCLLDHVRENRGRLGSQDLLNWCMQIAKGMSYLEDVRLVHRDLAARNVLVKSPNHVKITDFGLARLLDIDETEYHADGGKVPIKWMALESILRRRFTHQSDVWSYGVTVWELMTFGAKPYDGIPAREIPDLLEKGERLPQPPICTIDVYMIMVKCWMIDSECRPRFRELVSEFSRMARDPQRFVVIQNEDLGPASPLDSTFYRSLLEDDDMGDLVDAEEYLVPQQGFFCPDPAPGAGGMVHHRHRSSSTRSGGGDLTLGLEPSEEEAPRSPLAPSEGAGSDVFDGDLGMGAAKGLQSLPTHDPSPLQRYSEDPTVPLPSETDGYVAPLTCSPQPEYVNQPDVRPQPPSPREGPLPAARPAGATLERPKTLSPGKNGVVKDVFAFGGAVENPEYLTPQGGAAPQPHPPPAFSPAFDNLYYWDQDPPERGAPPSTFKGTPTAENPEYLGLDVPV

Ephrin type-A receptor 2 = Ephrin type-A receptor 2 (Homo sapiens, UniProt P29317); assay: Inhibition of recombinant human N-terminal His6-tagged EphA2 (N598 to R890 residues) expressed in baculovirus using poly-EY as substrate after 180 mins by luciferase coupled chemiluminescence assay
Sequence of Ephrin type-A receptor 2 (P29317 whole entry, the tested form may be a part): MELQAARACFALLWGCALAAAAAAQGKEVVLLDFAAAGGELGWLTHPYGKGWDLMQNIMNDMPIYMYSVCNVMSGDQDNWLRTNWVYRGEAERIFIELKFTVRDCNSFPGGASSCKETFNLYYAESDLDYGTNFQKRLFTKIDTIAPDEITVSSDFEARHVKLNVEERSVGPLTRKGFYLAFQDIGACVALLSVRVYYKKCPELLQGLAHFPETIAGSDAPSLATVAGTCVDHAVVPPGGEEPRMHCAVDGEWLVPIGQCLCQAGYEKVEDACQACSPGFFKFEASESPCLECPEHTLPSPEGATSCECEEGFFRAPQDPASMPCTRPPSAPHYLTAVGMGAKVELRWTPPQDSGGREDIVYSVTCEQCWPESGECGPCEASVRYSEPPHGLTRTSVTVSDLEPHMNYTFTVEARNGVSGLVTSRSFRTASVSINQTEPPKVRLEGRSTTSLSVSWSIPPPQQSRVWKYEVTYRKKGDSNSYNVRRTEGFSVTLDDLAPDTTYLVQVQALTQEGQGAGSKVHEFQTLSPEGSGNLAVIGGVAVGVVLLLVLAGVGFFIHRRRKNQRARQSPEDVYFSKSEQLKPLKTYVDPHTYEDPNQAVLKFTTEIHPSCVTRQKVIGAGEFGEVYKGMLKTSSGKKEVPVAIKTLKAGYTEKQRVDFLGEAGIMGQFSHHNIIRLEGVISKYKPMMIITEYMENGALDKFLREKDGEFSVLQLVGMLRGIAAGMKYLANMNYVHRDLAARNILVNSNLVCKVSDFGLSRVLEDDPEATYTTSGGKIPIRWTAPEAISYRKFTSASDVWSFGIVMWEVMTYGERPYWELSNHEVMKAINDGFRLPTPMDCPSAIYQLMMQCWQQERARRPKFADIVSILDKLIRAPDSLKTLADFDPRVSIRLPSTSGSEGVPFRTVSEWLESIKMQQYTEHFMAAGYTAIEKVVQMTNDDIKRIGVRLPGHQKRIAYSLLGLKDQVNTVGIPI

SMILES: COc1cc2c(Nc3ccc(Cl)c(Cl)c3)ncnc2cc1OCC1CNCC(C)(C)O1 (stereo not given)
- IC50 (Ephrin type-B receptor 4): 50 to 1000 nM
- IC50 [1]: < 50 nM
- IC50 [2]: 50 to 1000 nM

SMILES: COc1cc2c(Nc3ccc(Br)c(Cl)c3C)ncnc2cc1OCC1CN(C)CCO1 (stereo not given)
- IC50 (Ephrin type-B receptor 4): 50 to 1000 nM
- IC50 (Ephrin type-A receptor 2): 50 to 1000 nM
- IC50 [1]: 50 to 1000 nM
- IC50 [2]: 50 to 1000 nM

SMILES: COc1cc2c(Nc3ccc(Br)c(Cl)c3)ncnc2cc1O[C@H]1CO[C@H]2[C@@H]1OC[C@@H]2N1CCCCC1
- IC50 (Ephrin type-B receptor 4): 50 to 1000 nM
- IC50 (Ephrin type-A receptor 2): 1000 to 20000 nM
- IC50 [1]: 1000 to 20000 nM
- IC50 [2]: 1000 to 20000 nM

SMILES: COc1cc2c(Nc3cc(F)c(Br)c(F)c3)ncnc2cc1OCC1CN(C)CCO1 (stereo not given)
- IC50 (Ephrin type-B receptor 4): 50 to 1000 nM
- IC50 (Ephrin type-A receptor 2): 50 to 1000 nM
- IC50 [1]: < 50 nM
- IC50 [2]: 50 to 1000 nM

SMILES: COc1cc2c(Nc3ccc(Cl)c(Cl)c3)ncnc2cc1OCCC1CN(C)C(C)(C)CO1 (stereo not given)
- IC50 (Ephrin type-B receptor 4): 50 to 1000 nM
- IC50 (Ephrin type-A receptor 2): 50 to 1000 nM
- IC50 [1]: 50 to 1000 nM
- IC50 [2]: 50 to 1000 nM

SMILES: COc1cc2c(Nc3ccc(Br)c(Cl)c3)ncnc2cc1OCC1CN(C)CCO1 (stereo not given)
- IC50 (Ephrin type-B receptor 4): < 50 nM
- IC50 (Ephrin type-A receptor 2): < 50 nM
- IC50 [1]: < 50 nM
- IC50 [2]: 50 to 1000 nM

SMILES: COc1cc2c(Nc3ccc(Cl)c(Cl)c3)ncnc2cc1OCc1csc(N2CCN(C)CC2)n1
- IC50 (Ephrin type-B receptor 4): 50 to 1000 nM
- IC50 (Ephrin type-A receptor 2): 50 to 1000 nM
- IC50 [1]: 50 to 1000 nM
- IC50 [2]: 50 to 1000 nM

SMILES: CCS(=O)(=O)N1CCOC(COc2cc3ncnc(Nc4ccc(Cl)c(Cl)c4)c3cc2OC)C1 (stereo not given)
- IC50 (Ephrin type-B receptor 4): < 50 nM
- IC50 (Ephrin type-A receptor 2): < 50 nM
- IC50 [1]: 50 to 1000 nM
- IC50 [2]: < 50 nM

SMILES: COc1cc2c(Nc3ccc(Cl)c(Cl)c3F)ncnc2cc1OC[C@@H]1CN(C)CC(=O)N1
- IC50 (Ephrin type-B receptor 4): 50 to 1000 nM
- IC50 (Ephrin type-A receptor 2): 50 to 1000 nM
- IC50 [1]: 50 to 1000 nM
- IC50 [2]: 50 to 1000 nM

SMILES: COc1cc2c(Nc3cc(Cl)c(Cl)cc3F)ncnc2cc1OCC1CN(C)CCO1 (stereo not given)
- IC50 (Ephrin type-B receptor 4): < 50 nM
- IC50 (Ephrin type-A receptor 2): 50 to 1000 nM
- IC50 [1]: 50 to 1000 nM
- IC50 [2]: 50 to 1000 nM

SMILES: COc1cc2c(Nc3ccc(Cl)c(Cl)c3)ncnc2cc1OCC1CN(C(=O)C2CCCC2)CCO1 (stereo not given)
- IC50 (Ephrin type-B receptor 4): < 50 nM
- IC50 (Ephrin type-A receptor 2): 50 to 1000 nM
- IC50 [1]: 50 to 1000 nM
- IC50 [2]: < 50 nM

SMILES: CCCCN1CCOC(COc2cc3ncnc(Nc4ccc(Cl)c(Cl)c4)c3cc2OC)C1 (stereo not given)
- IC50 (Ephrin type-B receptor 4): < 50 nM
- IC50 (Ephrin type-A receptor 2): 50 to 1000 nM
- IC50 [1]: < 50 nM
- IC50 [2]: 50 to 1000 nM

SMILES: CC(C)Oc1cc2c(Nc3ccc(Cl)c(Cl)c3)ncnc2cc1OCC1CNCCO1 (stereo not given)
- IC50 (Ephrin type-B receptor 4): < 50 nM
- IC50 (Ephrin type-A receptor 2): < 50 nM
- IC50 [1]: < 50 nM
- IC50 [2]: < 50 nM

SMILES: COc1cc2c(Nc3ccc(Cl)c(Cl)c3)ncnc2cc1OCC1CN(C)C(C)(C)CO1 (stereo not given)
- IC50 (Ephrin type-B receptor 4): < 50 nM
- IC50 (Ephrin type-A receptor 2): 50 to 1000 nM
- IC50 [1]: < 50 nM
- IC50 [2]: < 50 nM

SMILES: COc1cc2c(Nc3ccc(Br)c(Cl)c3)ncnc2cc1O[C@H]1CO[C@H]2[C@@H]1OC[C@@H]2OC(C)=O
- IC50 (Ephrin type-B receptor 4): 50 to 1000 nM
- IC50 (Ephrin type-A receptor 2): 1000 to 20000 nM
- IC50 [1]: 1000 to 20000 nM
- IC50 [2]: 1000 to 20000 nM

SMILES: COc1cc2c(Nc3cc(Cl)c(Cl)cc3F)ncnc2cc1OCC1CN(C)C(C)(C)CO1 (stereo not given)
- IC50 (Ephrin type-B receptor 4): < 50 nM
- IC50 (Ephrin type-A receptor 2): < 50 nM
- IC50 [1]: < 50 nM
- IC50 [2]: < 50 nM

SMILES: COc1cc2c(Nc3ccc(Br)c(Cl)c3Cl)ncnc2cc1OCC1CN(C)CCO1 (stereo not given)
- IC50 (Ephrin type-B receptor 4): < 50 nM
- IC50 (Ephrin type-A receptor 2): 50 to 1000 nM
- IC50 [1]: 50 to 1000 nM
- IC50 [2]: 50 to 1000 nM

SMILES: COc1cc2c(Nc3ccc(Cl)c(Cl)c3)ncnc2cc1OCCC1CN(C(=O)OC(C)(C)C)C(C)(C)CO1 (stereo not given)
- IC50 (Ephrin type-B receptor 4): 1000 to 20000 nM
- IC50 (Ephrin type-A receptor 2): 1000 to 20000 nM
- IC50 [1]: 1000 to 20000 nM
- IC50 [2]: 1000 to 20000 nM

SMILES: COc1cc2c(Nc3ccc(Br)c(Cl)c3)ncnc2cc1O[C@@H]1CO[C@H]2[C@@H]1OC[C@@H]2NS(C)(=O)=O
- IC50 (Ephrin type-B receptor 4): 50 to 1000 nM
- IC50 (Ephrin type-A receptor 2): 1000 to 20000 nM
- IC50 [1]: 1000 to 20000 nM
- IC50 [2]: 50 to 1000 nM

SMILES: COc1cc2c(Nc3ccc(Br)c(Cl)c3Cl)ncnc2cc1OCC1CN(C)C(C)(C)CO1 (stereo not given)
- IC50 (Ephrin type-B receptor 4): < 50 nM
- IC50 (Ephrin type-A receptor 2): < 50 nM
- IC50 [1]: 50 to 1000 nM
- IC50 [2]: 50 to 1000 nM

SMILES: COc1cc2c(Nc3ccc(Cl)c(Cl)c3)ncnc2cc1OCC1CN(c2ccncc2)CCO1 (stereo not given)
- IC50 (Ephrin type-B receptor 4): < 50 nM
- IC50 (Ephrin type-A receptor 2): < 50 nM
- IC50 [1]: < 50 nM

SMILES: COc1cc2c(Nc3ccc(Cl)c(C)c3)ncnc2cc1OCC1CN(C)CCO1 (stereo not given)
- IC50 (Ephrin type-B receptor 4): 50 to 1000 nM
- IC50 (Ephrin type-A receptor 2): 50 to 1000 nM
- IC50 [1]: 50 to 1000 nM
